# Read-outs that look alike come from different tables or passages of the source.
# Experiments:
# A498 cell line = details: comparative data, hybrids without piperazine; read-out: GI50 A498 (hybrides with out piperazine); cited from earlier work
# [1] = test system: IGROV1 (ovary cancer) cell line; details: comparative data, hybrids without piperazine; read-out: GI50 IGROV1 (hybrides with out piperazine); cited from earlier work
# [2] = test system: A 549 (lung cancer) cell line; details: comparative data, hybrids without piperazine; read-out: GI50 A 549 (hybrides with out piperazine); cited from earlier work
# [3] = test system: PC 3 (prostate cancer) cell line; details: comparative data, hybrids without piperazine; read-out: GI50 PC 3 (hybrides with out piperazine); cited from earlier work
# [4] = test system: MCF 7 (breast cancer) cell line; details: comparative data, hybrids without piperazine; read-out: GI50 MCF 7 (hybrides with out piperazine); cited from earlier work
# [5] = test system: HOP 62 (lung cancer) cell line; details: comparative data, hybrids without piperazine; read-out: GI50 HOP 62 (hybrides with out piperazine); cited from earlier work
# [6] = test system: duplex-form calf thymus DNA (CT-DNA); details: comparative data, hybrids without piperazine, cited from earlier work
# SNB-19 cell line = details: comparative data, hybrids without piperazine; read-out: GI50 SNB-19 (hybrides with out piperazine); cited from earlier work
# [7] = test system: Colo 205 (colon cancer) cell line; details: comparative data, hybrids without piperazine; read-out: GI50 Colo 205 (hybrides with out piperazine); cited from earlier work
# [8] = test system: KB (oral cancer) cell line; test: In vitro anticancer activity, SRB assay, KB; type: cell-based, human; details: Homo sapiens, 48 h; for GI50: read-out: GI50 KB, 48 h drug exposure, SRB, mean of three determinations; for CC50: read-out: LC50 KB, 50% cell death, 48 h drug exposure, SRB
# Experimental: (§1) Anticancer activity: In vitro biological activity studies were carried out at the Advance Center for Treatment Research & Education in Cancer (ACTREC), Navi Mumbai.
# (§2) The compounds were evaluated for in vitro anticancer activity against eight tumour cells lines derived from seven cancer types (non-small-cell lung, colon, oral, cervix, ovarian, prostate, and breast cancer) as shown in Table 2. For each compound, dose response curves for each cell line were measured at a minimum of five concentrations at 10 fold dilutions. A protocol of 48 h continuous drug exposure was used and a sulforhodamine B (SRB) protein assay was used to estimate cell viability or growth. The concentration causing 50% cell growth inhibition (GI50) and 50% cell death (LC50, −50% growth) compared with the control was calculated. Compounds 9a-9l have been evaluated for their in vitro cytotoxicity in eight cell lines from seven human cancer types of lung (Hop-62, A-549) colon (COLO-205) cervix (Si—Ha), ovary (A-2780), prostate (PC3) breast (MCF7), oral (KB). The results are expressed as percent of cell growth determined relative to that of untreated control cells (Table-8 and table-9).
# [9] = test system: A 2780 (ovary cancer) cell line; test: cells; type: cell-based; details: Homo sapiens, A2780, 48 h; for GI50: read-out: GI50 A 2780, 48 h drug exposure, SRB, mean of three determinations; for CC50: read-out: LC50 A 2780, 50% cell death, 48 h drug exposure, SRB
# Experimental: as §1, §2
# [10] = test system: PC 3 (prostate cancer) cell line; test: cells; type: cell-based; details: Homo sapiens, 48 h; for GI50: read-out: GI50 PC 3; for CC50: read-out: LC50 Pc 3, 50% cell death, 48 h drug exposure, SRB
# Experimental: as §1, §2
# [11] = test system: A 549 (lung cancer) cell line; test: cells; type: cell-based; details: Homo sapiens, A549, 48 h; for GI50: read-out: GI50 A 549, 48 h drug exposure, SRB, mean of three determinations; for CC50: read-out: LC50 A 549, 50% cell death, 48 h drug exposure, SRB
# Experimental: as §1, §2
# [12] = test system: SiHa (cervix cancer) cell line; test: cells; type: cell-based; details: Homo sapiens, SiHa, 48 h; for GI50: read-out: GI50 SiHa, 48 h drug exposure, SRB, mean of three determinations; for LC50 (concentration causing 50% cell death): read-out: LC50 SiHa, 50% cell death, 48 h drug exposure, SRB
# Experimental: as §1, §2
# [13] = test system: MCF 7 (breast cancer) cell line; test: cells; type: cell-based; details: Homo sapiens, MCF7, 48 h; for GI50: read-out: GI50 MCF 7; for LC50 (concentration causing 50% cell death): read-out: LC50 MCF 7, 50% cell death, 48 h drug exposure, SRB
# Experimental: as §1, §2
# [14] = test system: Colo 205 (colon cancer) cell line; test: cells; type: cell-based; details: Homo sapiens, COLO 205, 48 h; for GI50: read-out: GI50 Colo 205, 48 h drug exposure, SRB, mean of three determinations; for CC50: read-out: LC50 Colo 205
# Experimental: as §1, §2
# [15] = test system: HOP 62 (lung cancer) cell line; test: cells; type: cell-based; details: Homo sapiens, HOP-62, 48 h; for GI50: read-out: GI50 HOP 62, 48 h drug exposure, SRB, mean of three determinations; for LC50: read-out: LC50 HOP 62, 50% cell death, 48 h drug exposure, SRB
# Experimental: as §1, §2
# [16] = test system: MCF-7 (breast cancer) xenografts; test: In vivo efficacy study on xenograft MCF-7; details: MCF-7 xenograft, scid male mice; compared with positive control adriamycin
# Description: (§3) References may be made to patent “WO/2008/099416” wherein Benzothiazole or benzoxazole linked Pyrrolo[2,1-c][1,4] benzodiazepine hybrid as anticancer agent has been reported. References may be made to patent “U.S. Pat. No. 6,979,684” wherein Pyrrolo[2,1-c][1,4] benzodiazepine and naphthalimide are linked through piperazine moiety. The linking of pharmacophore like napthalimide and piperazine to pyrroloberizodiazepine can not be considered similar to a pharmacophore like benzothiazole as each pharmacophore is known for certain biological property. In the present investigation the benzothiaole and piperazine subunits are considered to be a different heterocyclic moieties compared to the earlier reported pharmacophores like napthalimide. Therefore, this structural variation of benzothiazole with piperazine moiety has been utilized for DNA binding aspect. Keeping this in mind, these new conjugates have been designed and synthesized to further improve the anticancer activity including the DNA binding affinity. The anticancer activity may not depend on the DNA binding activity. […] Moreover, one of the potent conjugate 9f (IICT-302) of this series has been evaluated for its in vivo efficacy studies (in scid male mice) against MCF-7 (breast cancer) and PC-3 (prostate cancer) xenografts by using adriamycin as a positive control.
# FIG. 2 represents in vivo efficacy study of compound 9f on xenograft MCF-7.
# (§4) The structural variation of benzothiazole/benzoxazole with piperazine moiety has been utilized for DNA binding aspect. Moreover, one of the potent conjugate 9f (IICT-302) of this series has been evaluate for its in vivo efficacy studies against MCF-7 (breast cancer) and PC-3 (prostate cancer) by using Adriamycin as positive control.
# [17] = test system: PC-3 (prostate cancer) xenografts; test: In vivo efficacy study on xenograft PC3; details: PC-3 xenograft, scid male mice; compared with positive control adriamycin
# Description: as §3
# FIG. 3 represents in vivo efficacy study of compound 9f on xenograft PC3.
# as §4
# [18] = test system: duplex-form calf thymus DNA (CT-DNA); test: Thermal denaturation studies with calf thymus DNA (DNA binding affinity); details: [PBD]:[DNA] 1:5, CT-DNA 100 μM, ligand 20 μM, pH 7.00
# Experimental: Compounds have been subjected to thermal denaturation studies with duplex-form calf thymus DNA (CT-DNA) using an modification of a reported procedure (Newman, M. S. Carcinog-compr. Surv. 1976,1, 203; (b) Hecht, S. S.; Loy, M.; Hoffman, Carcinog-compr. Surv. 1976, 1, 325). Working solutions in aqueous buffer (10 mM NaH2PO4/Na2HPO4, 1 mM Na2EDTA, pH 7.00+0.01) containing CT-DNA (100 μm in phosphate) and the PBD (20 μm) have been prepared by addition of concentrated PBD solutions in DMSO to obtain a fixed [PBD]/[DNA] molar ratio of 1:5. The DNA-PBD solutions have been incubated at 37° C. for 0 and 18 h prior to analysis. Samples have been monitored at 260 using a Beckman DU-800 spectrophotometer fitted with high performance temperature controller, and heated at 1° C. min^−1 in the 40-110° C. range. DNA helix→coil transition temperatures (Tm) have been obtained from the maxima in the d(A260)/dT derivative plots. Drug-induced alterations in DNA melting behavior are given by: ΔTm=Tm(DNA+PBD)−Tm(DNA alone), where the Tm value for the PBD-free CT-DNA is 69.1±0.01.
# The DNA binding activity for these novel C8-linked benzothiazole, benzoxazole-PBD hybrids has been examined by thermal denaturation studies using calf thymus (CT) DNA. […] The data for the compounds 9a-n is included in Table 7 for comparison.
# [19] = test system: eight tumour cells lines derived from seven cancer types; test: In vitro anticancer activity, SRB assay, panel of eight cell lines; type: cell-based; details: Homo sapiens, range over the eight cell lines per compound; read-out: GI50 range against cancer cell lines
# Experimental: as §1, §2
Structure (SMILES),GI50 (A498 cell line),GI50 [1],GI50 [2],GI50 [3],GI50 [4],GI50 [5],ΔTm after incubation at 37° C. for 0 h (PBD hybrids with out piperizine) [6],ΔTm after incubation at 37° C. for 18 h (PBD hybrids with out piperizine) [6],GI50 (SNB-19 cell line),GI50 [7],GI50 [8],CC50 [8],GI50 [9],CC50 [9],GI50 [10],CC50 [10],GI50 [11],CC50 [11],GI50 [12],LC50 (concentration causing 50% cell death) [12],further results
COc1cc2c(cc1OCCCCOc1ccc(-c3nc4ccccc4s3)cc1)N=C[C@@H]1CCCN1C2=O [Compound 20a],2020 nM,2420 nM,2630 nM,290 nM,320 nM,406 nM,0.5 °C,0.5 °C,1520 nM,340 nM,,,,,,,,,,,
COc1cc(-c2nc3ccccc3s2)ccc1OCCCCOc1cc2c(cc1OC)C(=O)N1CCC[C@H]1C=N2 [Compound 20b],1600 nM,3060 nM,2660 nM,410 nM,400 nM,1410 nM,0.5 °C,0.5 °C,1610 nM,690 nM,,,,,,,,,,,
COc1cc2c(cc1OCCCCCOc1ccc(-c3nc4ccccc4s3)cc1)N=C[C@@H]1CCCN1C2=O [Compound 20c],2260 nM,2690 nM,2590 nM,230 nM,330 nM,412 nM,4.1 °C,4.3 °C,2940 nM,380 nM,,,,,,,,,,,
COc1cc(-c2nc3ccccc3s2)ccc1OCCCCCOc1cc2c(cc1OC)C(=O)N1CCC[C@H]1C=N2 [Compound 20d],170 nM,344 nM,240 nM,40 nM,10 nM,40 nM,6.2 °C,6.3 °C,210 nM,60 nM,,,,,,,,,,,
"COc1cc(-c2nc3ccccc3s2)ccc1OCCCCN1CCN(CCCCOc2cc3c(cc2OC)C(=O)N2CCC[C@H]2C=N3)CC1 [Compound 9f, 7-Methoxy-8-[4-(4-{4-[4(1,3-benzothiazol-2-yl)-2-methoxyphenoxy]butyl}piperazin-1-yl)butyl]oxy-(11aS)-1,2,3,11a-tetrahydro-5H-pyrrolo[2,1-c][1,4]benzodiazepin-5-one]",,,,,,,,,,,< 10 nM,180 nM,< 10 nM,89 nM,< 10 nM,2400 nM,< 10 nM,> 100000 nM,< 10 nM,2500 nM,GI50 [13]: < 10 nM; LC50 (concentration causing 50% cell death) [13]: < 10 nM; GI50 [14]: < 10 nM; CC50 [14]: > 100000 nM; GI50 [15]: < 10 nM; LC50 [15]: 2400 nM; RTV in in vivo efficacy study [16]: good RTV; survival data in in vivo efficacy study [16]: good survival data; toxicity in in vivo efficacy study [16]: less toxicity; RTV in in vivo efficacy study [17]: good RTV; survival data in in vivo efficacy study [17]: good survival data; toxicity in in vivo efficacy study [17]: less toxicity; ΔTm after incubation at 37° C. for 0 h [18]: 15.5 °C; ΔTm after incubation at 37° C. for 18 h [18]: 15.9 °C; GI50 [19]: < 10 nM
COc1cc2c(cc1OCCCN1CCN(CCCOc3ccc(-c4nc5ccccc5s4)cc3)CC1)N=C[C@@H]1CCCN1C2=O [Compound 9a],,,,,,,,,,,120 nM,2400 nM,108 nM,23000 nM,120 nM,28000 nM,130 nM,> 100000 nM,130 nM,27500 nM,GI50 [13]: < 10 nM; LC50 (concentration causing 50% cell death) [13]: 1900 nM; GI50 [14]: 100 nM; CC50 [14]: > 100000 nM; GI50 [15]: 100 nM; LC50 [15]: 27000 nM; ΔTm after incubation at 37° C. for 0 h [18]: 10.2 °C; ΔTm after incubation at 37° C. for 18 h [18]: 10.8 °C; GI50 [19]: ≤ 130 nM
